# Values joined by “and” are separate entries in the source; they are usually repeats but may differ in a detail not shown here. Equal values may be shown once.
# Legend:
# [1] = biological target: T1, human recombinant mTOR kinase (Homo sapiens, UniProt P42345); assay: In vitro mTOR kinase assay (K-LISA ELISA, p70S6K-GST substrate); format: biochemical; conditions: for inhibition at 10 µM: triplicate measurements; for IC50: mean ± SD of triplicate measurements
# T1 construct: a purified recombinant mTOR fragment (amino acids 1360-2549, CBA104-1KIT from Calbiochem); purchased Calbiochem CBA104-1KIT
# T1 sequence (P42345 1360-2549): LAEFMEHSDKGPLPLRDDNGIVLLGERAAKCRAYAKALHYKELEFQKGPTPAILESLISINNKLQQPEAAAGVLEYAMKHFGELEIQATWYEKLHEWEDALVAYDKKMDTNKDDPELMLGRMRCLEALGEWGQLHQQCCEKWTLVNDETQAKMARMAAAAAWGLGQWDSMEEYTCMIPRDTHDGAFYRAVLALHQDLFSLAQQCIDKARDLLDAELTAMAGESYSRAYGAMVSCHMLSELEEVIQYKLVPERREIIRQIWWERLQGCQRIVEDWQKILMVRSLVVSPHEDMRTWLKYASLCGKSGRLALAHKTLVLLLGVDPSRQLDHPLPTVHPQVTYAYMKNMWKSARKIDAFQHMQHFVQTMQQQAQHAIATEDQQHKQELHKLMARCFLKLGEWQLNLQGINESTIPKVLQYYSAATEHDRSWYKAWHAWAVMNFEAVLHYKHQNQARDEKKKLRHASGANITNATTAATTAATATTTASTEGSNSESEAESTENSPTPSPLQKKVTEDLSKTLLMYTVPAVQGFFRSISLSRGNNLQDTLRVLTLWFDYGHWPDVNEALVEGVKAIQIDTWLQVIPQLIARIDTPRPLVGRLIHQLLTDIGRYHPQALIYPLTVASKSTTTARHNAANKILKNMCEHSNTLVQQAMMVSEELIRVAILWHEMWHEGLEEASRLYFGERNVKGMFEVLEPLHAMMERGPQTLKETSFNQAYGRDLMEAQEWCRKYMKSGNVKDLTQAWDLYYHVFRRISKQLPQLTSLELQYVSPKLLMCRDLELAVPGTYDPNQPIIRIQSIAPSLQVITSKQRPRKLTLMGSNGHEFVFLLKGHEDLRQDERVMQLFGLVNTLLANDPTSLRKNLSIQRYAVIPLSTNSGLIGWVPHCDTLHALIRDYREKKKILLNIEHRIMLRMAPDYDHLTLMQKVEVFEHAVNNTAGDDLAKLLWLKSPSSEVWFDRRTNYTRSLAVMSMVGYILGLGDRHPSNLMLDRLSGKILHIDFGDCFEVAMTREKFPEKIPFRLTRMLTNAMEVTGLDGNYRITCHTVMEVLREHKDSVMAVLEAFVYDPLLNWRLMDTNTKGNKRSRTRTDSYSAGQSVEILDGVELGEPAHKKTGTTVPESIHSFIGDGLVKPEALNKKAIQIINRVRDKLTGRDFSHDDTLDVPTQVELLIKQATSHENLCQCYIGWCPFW
# Description: The mTOR kinase inhibitory activities of the 41 final virtual hits were determined using an ELISA-based activity assays that utilize a p70S6K-GST fusion protein as a specific mTOR substrate (see the Experimental Section for details). For the initial screening, all the activities were measured at a concentration of 10 μM.
# mTOR activity was evaluated using a purified recombinant mTOR fragment (amino acids 1360-2549, CBA104-1KIT from Calbiochem). The K-LISA^TM mTOR activity kit is an ELISA-based activity assay for detection of phosphorylation of a p70S6K-GST fusion protein (a specific mTOR substrate) in the presence of ATP. The assay was optimized for use with mTOR as described in the Calbiochem protocol. The assay takes place in 96-well plates and can be divided into two phases: an mTOR kinase reaction phase and phosphorylated substrate detection phase.
# In the kinase reaction phase, the following components were mixed in the same well: 5 μL of a solution containing 5 μg/mL mTOR substrate (recombinant p70S6K-GST fusion protein) in Tris-buffered saline (1 L TBS: sodium chloride 8.8 g, Tris Base 2.4 g, HCl 13 mL, Tween-20 10 ml, ddH2O), 5 μL ATP solution containing 20 mM ATP diluted in kinase assay buffer (pH 7.4, 0.01% Tween 20, 1 mM EDTA, 10 mM MgCl2, 1 mM DTT), […] of human recombinant mTOR kinase at the optimal concentration (80 ng/well) diluted in kinase assay buffer, and 5 μL of serial dilutions of inhibitors diluted in DMSO and kinase assay buffer. For each inhibitor concentration, the assay was run in triplicate. The final reaction volume was 100 μL per well, and samples incubated for 30 min at room temperature.
# The kinase reaction was stopped by adding 10 μL kinase stop solution to each well. The phosphorylated substrate was detected using Anti-p70S6K-pT389 antibody, followed by detection with HRP-Antibody Conjugate and TMB Substrate. Then, ELISA stop solution was added to each well to stop the reaction, and relative mTOR inhibition activity was determined by reading the absorbance at dual wavelengths of 450/540 nm.
# [2] = system: MGC-803 (human gastric cancer); assay: In vitro cell proliferation assay; format: cell-based; conditions: data not shown
# Description: (§1) Most human breast cancer cells and cervical cancer cells become resistant to current chemotherapeutic drugs due to mutation of apoptotic mechanisms. It has been reported that MCF-7 cells are resistant to most of the drugs approved by the US Food and Drug Administration (FDA), including paclitaxel, doxorubicin, 5-fluorouracil, etoposide, and camptothecin[31][32].
# (§2) Cell proliferation was measured with an MTS assay (CellTiter 96 Aqueous ONE Solution kit; Promega, Madison, USA). MCF-7, HeLa, MGC-803, C6 and U87 cells in log-phase were seeded (5 × 10^3 cells/well) in 96-well plates for 24 h, and then the medium were replaced with fresh medium containing different concentrations of compounds. […] After incubation for 48 h, the cells were further incubated with 20 μL of MTS for 1–4 h at 37 °C in a humidified incubator with 5% CO2. The absorbance at 490 nm was measured using a mircoplate reader (Model680, Bio-Rad; Hercules, CA, USA). The inhibition rate (%) was calculated as equation (1): […]
# (§3) IC50 values were determined from the results of at least three independent tests and calculated from the inhibition curves.
# [3] = system: MCF-7 (human breast cancer cell); assay: In vitro cell proliferation assay; format: cell-based; conditions: data not shown
# Description: as §1, §2, §3
# C6 (Glioma cell) = assay: In vitro cell proliferation assay; format: cell-based; conditions: data not shown
# Description: as §1, §2, §3
# U87 cells (Glioma cell) = assay: In vitro cell proliferation assay; format: cell-based; conditions: data not shown
# Description: as §1, §2, §3
# [4] = system: HeLa (human cervical cancer cell); assay: In vitro cell proliferation assay; format: cell-based; conditions: data not shown
# Description: as §1, §2, §3
# mTOR kinase = biological target: mTOR kinase; set-up: method as in PMID 11575159; conditions: read-out: IC50 (mTOR kinase, reported); cited from earlier work
inhibition at 10 µM [1],IC50 [1],SMILES,also measured
22%,–,COc1cc(/C=C2/SC(=S)N(C)C2=O)ccc1Oc1nc(N2CCOCC2)nc(N2CCOCC2)n1 [Compound 6],–
23%,–,Cc1cc(=O)n2nc(N)c(/N=N/c3ccccc3)c2[nH]1 [Compound 9],–
30%,–,Nc1nc2ncc(-c3n[nH]cc3[N+](=O)[O-])cn2n1 [Compound 12],–
38%,> 50 µM,O=[N+]([O-])c1c(Nc2ccc3c(c2)OCO3)cc(N2CCOCC2)c2nonc12 [Compound 18],–
55%,< 10 µM and 9.2 µM,Clc1ccc(-c2nnc3sc(-c4cnccn4)nn23)cc1 [Compound 20],–
50%,14.4 ± 2.02 µM,c1coc(-c2nnc3sc(-c4cnccn4)nn23)c1 [Compound 21],–
36%,> 50 µM,COC(=O)c1sc2nc(-c3ccccc3)nc(N3CCOCC3)c2c1C [Compound 25],–
33%,> 50 µM,O=C(NC(=S)Nc1ccc2oc(-c3cccnc3)nc2c1)c1ccco1 [Compound 26],–
38%,28.6 ± 2.65 µM,COc1cccc(-c2nn3c(N)c(C#N)c(-c4cccnc4)nc3c2C)c1 [Compound 27],–
21%,–,NC(=O)c1nnn(Cc2cc(Cl)c(C(=O)c3ccc(Cl)cc3)c(Cl)c2)c1N [Compound 33],–
31%,14.9 ± 1.01 µM,O=C(CCl)Nc1ccc(/C=C2\CCCn3c2nc2cc(NC(=O)CCl)ccc2c3=O)cc1 [Compound 36],–
22%,–,COc1c(-c2ccoc2)oc2ccc(C)cc2c1=O [Compound 37],–
91%,< 10 µM and 1.47 µM,CNc1cccc2c(NC(=S)NC(=O)c3cccc(C(=O)NC(C)=S)c3)cccc12 [Compound 40],anti-proliferative activity [2]: do not show anti-proliferative activity; anti-proliferative activity [3]: do not show anti-proliferative activity; anti-proliferative activity (C6 (Glioma cell)): do not show anti-proliferative activity; anti-proliferative activity (U87 cells (Glioma cell)): do not show anti-proliferative activity; anti-proliferative activity [4]: do not show anti-proliferative activity

# Source: article PMC4702177, “Discovering new mTOR inhibitors for cancer treatment through virtual screening methods and in vitro assays” (Scientific Reports, 2016)
